Laboratory results from patent US6365414B1, “Vitro system for determining formation of Aβ amyloid” (The General Hospital Corporation, priority 1994, dated 2002).
Where two headings read alike, the source gives them in different places.

How the values were obtained:
[1] = ^65Zn^2+ dot-blot binding to immobilized Aβ peptides (Scatchard / competition); settings: for zinc binding (in words): dot-blot or blot of tryptic digest, ^65Zn^2+
Description: ^65Zn^2+ Binding Studies—Dissolved peptides (1.2 nMol, unless otherwise stated) were dot-blotted onto 0.2-μm polyvinylidene difluoride membrane (Pierce Chemical Co.), washed twice with chelating buffer (200 μl×100 mM NaCl, 20 mM Tris-HCl, 1 mM EDTA, pH 7.4), then five times with blocking buffer (200 μl×100 mM NaCl, 20 mM Tris-HCl, 1 mM MnCl2, pH 7.4), and then incubated (60 min, 20° C.) with ^65Zn (unless otherwise stated 130,000 cpm, […] ^65ZnCl2 in 200 μl of blocking buffer±competing metal ion chloride). The dot-blot was then washed with blocking buffer (5×200 μl), the dot excised, placed in a test tube, and assayed by γ-counting (11% efficiency). The equilibration volume for stoichiometry estimates was regarded as 6×200 μl. The 214 nm UV absorbance of the unbound flow-through was assayed to determine the total amount of peptide remaining bound onto the membrane. […] To alter the pH, the ^65Zn incubation was carried out in the presence of 100 mM buffer: MOPS (pH 6.5-7.0), MES (pH 5.0-6.0), acetate (pH 3.5-4.5). The dot-blot apparatus was washed with detergent and EDTA (50 mM) then rinsed and siliconized between use.
Aliquots of Aβ were incubated (60 min) with ^65Zn^2+ in the presence of varying concentrations of unlabeled Zn^2+ (0.01-50 μM total). Values shown are means±S.D., n≧3. […] (FIG. 1b) depicts specificity of the Zn^2+ binding site for various metals. Aβ was incubated (60 min) with ^65Zn^2+ (157 nM, 138,000 cpm) and competing unlabeled metal ions (50 μM total). […] Percent binding of total counts ^65Zn^2+/min added is corrected for the amounts (in nanomoles) of peptides adhering to the membrane. (FIG. 1d) depicts as for 1a, with Aβ1-28 peptide substituting for Aβ1-40. 157 nM ^65Zn (138,000 cpm) is used in this experiment to probe immobilized peptide (1.6 nmol). (FIG. 1e) depicts pH dependence of […] binding to Aβ1-40.

[2] = molecular target: T1, Aβ (Homo sapiens, UniProt P05067); test: G50 gel filtration chromatography of Aβ with metal ions or EDTA; settings: for less total peptide eluted compared with EDTA profile / effect on Aβ recoverable by chromatography (in words): metal 25 μM
T1 construct: purchased Bachem; Sigma (also synthesized by the W. M. Keck Foundation laboratory, Yale); host or cells: chemical synthesis
Description: Aβ was stored in aliquots of 0.52 mg/ml in water at −20° C., then kept at 4° C. when thawed. Reagents were mixed without vortex mixing. The incubated Aβ was directly applied to a G50 SF (Pharmacia, Uppsala, Sweden) column (Bio-Rad Econo-Column, 30×0.7 cm) pre-equilibrated with metal salt solution or EDTA (50 μM) in TBS at 20° C. and eluted at 8 ml/h (Wiz peristaltic pump, Isco, Lincoln, Nebr.). Absorbance was measured at 254 and 214 nm (Type 6 optical unit, Isco). The amount of Aβ eluting at various peaks was estimated from the area under the curve. […] Because the sample eluted in a volume of approximately 15 ml, the average concentration of the peptide on the column was 0.8 μM.
To study the effects of protein blocking upon adsorption of Aβ to the chromatography column, a Sephadex G50 SF column which had been characterized previously for Aβ behavior was eluted with 3% bovine serum albumin (BSA) in TBS (50 ml) and equilibrated with non-BSA-containing buffer, subsequent to repeating the Aβ experiments.
The elution points of molecular mass standards and relative assignments of Aβ peak elutions are indicated. Mass standards were blue dextran (2×10^6 kDa, V0=void volume), BSA (66 kDa), carbonic anhydrase (29 kDa), cytochrome c (12.4 kDa), and aprotinin (6.5 kDa). The mass of Aβ is 4.3 kDa. […] Data for experiments performed in the presence of copper were taken from 214 nm readings and corrected for comparison.

[3] = Size estimation of Aβ aggregates with filters of various pore sizes, ^65Zn tracer, EDTA wash; type: physicochemical
Description: FIGS. 7a, 7b, 7c and 7d. Size estimation of zinc-induced Aβ aggregates. […] By determining the amounts of Aβ1-40 and ^65Zn in the filtrate, the quantities retarded by the filters could be determined, and the stoichiometry of the zinc: Aβ assemblies estimated. (7d) Bar graph. […] The amounts of zinc-precipitated Aβ1-40 resolubilized in the filtrate fraction were determined by OD214, and expressed as a percentage of the amount originally retained by the respective filters. ^65Zn released into the filtrate was measured by γ-counting.
By determining the amounts of Aβ1-40 and ^65Zn in the filtrate, the quantities retarded by the filters could be determined, and the stoichiometry of the zinc: Aβ assemblies estimated. […] The amounts of zinc-precipitated Aβ1-40 resolubilized in the filtrate fraction were determined by OD214, and expressed as a percentage of the amount originally retained by the respective filters. ^65Zn released into the filtrate was measured by γ-counting.

[4] = Tinctorial amyloid formation (Congo Red, polarized light); type: physicochemical
Description: Zinc-induced tinctorial amyloid formation. […] Unbound dye was removed, the pellet washed with buffer 1 (100 mM NaCl, 20 mM Tris-HCl, pH 7.4) and mounted for microscopy.
Unbound dye was removed, the pellet washed with buffer 1 (100 mM NaCl, 20 mM Tris-HCl, pH 7.4) and mounted for microscopy.

[5] = centrifugation studies; cited from earlier work
[6] = neutral pH; cited from earlier work
[7] = molecular target: T1, Aβ; test: SDS Tris/Tricine gel electrophoresis of Aβ incubated with Zn^2+; settings: Zn^2+ 200 μM, 1-24 h, 20° C.
Description: To further test whether zinc induces irreversible precipitation of Aβ in the absence of kaolin, Aβ incubated with Zn^2+ (200 μM, 1-24 h, 20° C.) was subjected to SDS Tris/Tricine gel electrophoresis.

[8] = human, in vivo
[9] = Aβ binding to kaolin (aluminum silicate); type: physicochemical; settings: metal 25 μM
Description: Aβ Binding to Kaolin (Aluminum Silicate)—Kaolin suspension was prepared in high performance liquid chromatography water (Fisher), defined, and adjusted to 50% (v/v). Aβ (40 μg) was incubated in siliconized reaction vessels with either kaolin or Sephadex G50 SF (10 μl×50% (v/v)) in Cu^2+, Zn^2+, or EDTA (100 μl in TBS, 5 min, room temperature). The suspension was then pelleted (1500×g, 3 min) and the supernatant removed and diluted 20-fold with water to bring the UV absorbance readings into the linear range. Samples were assayed at 214 nm before and after incubation with kaolin or Sephadex.
(FIG. 3a) depicts concentration (by 214 nm absorbance) of Aβ remaining in supernatant after incubation with 10 mg of G50 Sephadex. (FIG. 3b) depicts concentration (by 214 nm absorbance) of Aβ remaining in supernatant after incubation with 10 mg of kaolin, expressed as percent of the starting absorbance.

[10] = tested on: trypsin; test: Trypsin activity, Z-Arg-amido-4-methylcoumarin cleavage; type: biochemical
[11] = molecular target: T2, Aβ1-40 (Homo sapiens, UniProt P05067); test: Tryptic digestion of Aβ1-40 after incubation with Zn^2+; type: biochemical
T2 construct: Aβ1-40 (13.9 μg) was incubated with; purchased Bachem; Sigma (also synthesized by the W. M. Keck Foundation laboratory, Yale); host or cells: chemical synthesis
T2 sequence (P05067 672-711 limits assumed): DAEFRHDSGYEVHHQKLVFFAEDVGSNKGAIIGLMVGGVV
Description: Tryptic Digestion of Aβ-Aβ1-40 (13.9 μg) was incubated with Zn^2+ (12 μl in blocking buffer, 1 h, 37° C.) and then digested with trypsin (12 ng, 3 h, 37° C.). The reaction was stopped by adding SDS sample buffer containing phenylmethylsulfonyl fluoride (1 mM), boiling the samples (5 min), and applying the samples to Tris/Tricine gel electrophoresis and transfer. The blot was washed with EDTA, Coomassie-stained, incubated with ^65Zn^2+, individual bands were excised, assayed for ^65Zn^2+ binding, and N-terminal sequenced to confirm the identity of the digestion products.
The blot in 4a was incubated with ^65Zn^2+, the visible bands excised, and the bound counts for each band determined.

T1 sequence (P05067 672-711 limits assumed): as above

Compound: Aβ1-28: Aβ fragment, residues 1-28
- ^65Zn^2+ binding compared with Aβ1-40 ([1]; ^65Zn^2+ 74 nM, FIG. 1c): 30 % of Bmax

Compound: [Ba+2] [Ba^2+]
- less total peptide eluted compared with EDTA profile [2]: 40%

Compound: [Mg+2] [Mg^2+]
- less total peptide eluted compared with EDTA profile [2]: 40%

Compound: rat Aβ1-40: rat/mouse species of Aβ1-40; Arg→Gly, Tyr→Phe and His→Arg at positions 5, 10 and 13 (DAEFGHDSGFEVRHQKLVFFAEDVGSNKGAIIGLMVGGVV; Amyloid-beta protein 40; UniProt P08592 672-711, looked up)
- increase of >0.1μ particles following incubation with Zn^2+ ([3]; Zn^2+ 25 μM versus EDTA): 20%
- increase of >0.22μ particles following incubation with Zn^2+ ([3]; Zn^2+ 25 μM versus EDTA): 30%
- proportion as >0.65μ particles ([3]; Zn^2+ 25 μM, peptide […]): increased only slightly
- Zn^2+ concentration that induces amyloid by tinctorial criteria [4]: ≥ 10 µM
- Congo Red-stained material after incubation with EDTA ([4]; EDTA 50 μM instead of Zn^2+): In neither case was Congo Red-stained material detected
- tinctorial amyloid formation (in words) ([4]; Zn^2+ 25 μM, 30 min, 37° C.): significantly fewer and smaller particles, with minimal birefringence
- peptide aggregated into >0.2μ particles (EDTA, higher peptide concentrations): ≈ 15%
- peptide aggregated into >0.2μ particles (EDTA, peptide 0.8 μM): no detectable aggregation
- peptide aggregated into >0.2μ particles (Zn^2+ 25 μM, peptide 0.8 μM): no aggregation
- peptide aggregated into >0.2μ particles (Zn^2+ 25 μM, peptide 4 μM): 25%

Compound: [Pb+2] [Pb^2+]
- effect on Aβ recoverable by chromatography (in words) [2]: most strongly promotes the elution of the monomeric peptide, abolishing high order polymers

Compound: [Ag+2] [Ag^2+]
- less total peptide eluted compared with EDTA profile [2]: 40%

Compound: gln11: Aβ1-28 where residue 11 is glutamine (DAEFRHDSGYQVHHQKLVFFAEDVGSNK; Amyloid-beta protein 40; UniProt P05067 672-699, looked up, variant E11Q)
- zinc binding (in words) [1]: does not interfere with ^65Zn^2+ binding

Compound: ^125I-Aβ1-40: human Aβ1-40 tracer iodinated on the tyrosine residue at position 10
- Zn^2+ concentration required to precipitate the peptide [5]: 1 mM

Compound: [Ca+2] [Ca^2+]
- less total peptide eluted compared with EDTA profile [2]: 40%

Compound: NC(CO)(CO)CO [Tris]
- abolition of ^65Zn^2+ binding to Aβ ([1]; 150 mM Tris): ≈ 50%
- abolition of ^65Zn^2+ binding to Aβ ([1]; 500 mM Tris): ≈ 95%

Compound: [Cu+2] [Cu^2+]
- Aβ dimerization ([2]; 25 μM total): dramatic increase in Aβ dimerization

Compound: insulin: peptide whose zinc binding properties are well characterized
- stoichiometric ratio Zn^2+:insulin at which the peptide precipitates [6]: > 0.33

Compound: 6-40: 3.6 kDa tryptic digestion product of Aβ1-40
- zinc binding (in words) [1]: binds zinc

Compound: [Zn+2] [Zn^2+]
- covalent or SDS-resistant polymerization of Aβ [7]: does not induce covalent or SDS-resistant polymerization of Aβ
- effect on cognition of age-matched control subjects [8]: remained unaffected by the dose
- reversibility of changes [8]: rapidly reversible following cessation of the four day supplementation
- time to acute decline in cognition [8]: forty-eight
- drop in Mini-Mental State Examination scores ([8]; po): 31%
- competition of unlabeled metal ions for ^65Zn^2+ label on Aβ ([1]; competing metal 50 μM total, ^65Zn^2+ 157 nM): the only unlabeled metal ion tested that is capable of competing off the label
- effect on kaolin-induced Aβ precipitation relative to EDTA [9]: nearly half of the amount recovered from the EDTA incubation supernatant
- inhibition of tryptic activity ([10]; 200 μM): 12%
- effect on the activity of trypsin ([10]; up to 100 μM in TBS): negligible
- Aβ eluting from the column ([2]; 25 μM total Zn^2+): < 20%
- lowest total concentration that decreases recoverable Aβ ([2]; compared with EDTA profile): 0.4 µM
- inhibition of tryptic Aβ hydrolysis ([11]; 200 μM Zn^2+): complete inhibition of Aβ hydrolysis
- induction of aggregation of human Aβ1-40 by metal ions (metal ions 3 μM, Aβ1-40 […]): the only one of several metal ions tested on an equimolar basis, including Al^3+, to induce significant aggregation of human Aβ1-40

Compound: 17-40: 2.1 kDa tryptic digestion product of Aβ1-40, post-secretase carboxyl-terminal product (LVFFAEDVGSNKGAIIGLMVGGVV; Amyloid-beta protein 40; UniProt P05067 688-711, looked up, fragment) [reference compound]
- zinc binding (in words) [1]: does not bind zinc
- effect of zinc on the rate of tryptic digestion of the peptide ([11]; increasing zinc concentrations): not inhibited by increasing zinc concentrations

Compound: 25-35: Aβ fragment covering a region of the carboxyl terminus, residues 25-35 (GSNKGAIIGLM; Amyloid-beta protein 40; UniProt P05067 696-706, looked up, fragment)
- zinc binding (in words) [1]: unable to bind zinc

Compound: [Al+3] [Al^3+]
- effect on Aβ recoverable by chromatography (in words) [2]: partial effects on Aβ solubility comparable with 3 μM total Zn^2+
